US20090005403A1, “Alkinyl-Oxypyrimidines Used in the Form of Pesticides” (priority 2005, published 2009)

Tests used:
[1] = logP determination by HPLC on reversed-phase column (EEC Directive 79/831 annex V.A8); type: physicochemical
Protocol: Calibration was carried out using unbranched alkan-2-ones (having 3 to 16 carbon atoms) with known logP values (determination of logP values by the retention times using linear interpolation between two successive alkanone).

[2] = system: green peach aphid (Myzus persicae); test: Myzus test (MYZUPE spray treatment); type: in vivo; conditions: 500 g/ha, spray treatment of Chinese cabbage disks, 100% = all aphids killed
Protocol: Myzus Test (MYZUPE Spray Treatment)
To produce a suitable preparation of active compound, 1 part by weight of active compound is mixed with the stated amounts of solvents and emulsifier, and the concentrate is diluted with emulsifier-containing water to the desired concentration.
Disks of Chinese cabbage (Brassica pekinensis) which are infested by all stages of green peach aphid (Myzus persicae) are sprayed with a preparation of active compound of the desired concentration.
(§1) After the desired period of time, the effect in % is determined. 100% means that all aphids have been killed; 0% means that none of the aphids have been killed.

Myzus persicae = Myzus persicae (MYZUPE U); type: in vivo; conditions: 30 ppm, ingestion, 100% = all aphids killed
Protocol: Myzus Persicae (MYZUPE U)
To produce a suitable preparation of active compound, the active compound is mixed with the stated amounts of solvent, and the concentrate is diluted with stained water to the desired concentration.
The Myzus persicae are provided with a preparation of active compound of the desired concentration for ingestion.
as §1

[3] = system: cotton aphid (Aphis gossypii); test: Aphis gossypii test (APHIGO); type: in vivo; conditions: 100 ppm, cotton leaves dipped, 100% = all aphids killed
Protocol: Aphis Gossypii Test (APHIGO)
To produce a suitable preparation of active compound, 1 part by weight of active compound is mixed with the stated amounts of solvent and emulsifier, and the concentrate is diluted with emulsifier-containing water to the desired concentration.
Cotton leaves (Gossypium hirsutum) which are heavily infested by the cotton aphid (Aphis gossypii) are treated by being dipped into the preparation of active compound of the desired concentration.
After the desired period of time, the kill in % is determined. 100% means that all aphids have been killed; 0% means that none of the aphids have been killed.

[4] = reversed-phase HPLC column, in the preparation example, pH range not marked
[5] = reversed-phase C18 HPLC column, HPLC, reversed-phase C 18, 43° C., acidic range (pH 2.3), marked a)

chromatographic logP [1, 4] | chromatographic logP [1, 5] | Structure (SMILES) | effect in % (% 5 d) [2] [%] | effect in % (% 6-7 d) (Myzus persicae) [%] | kill in % (% 6 d) [3] [%]
– | 2.31 | CC#CCOc1cc(-c2ccccn2)ncn1 [Example 3] | 80 | – | –
– | 2.95 | CC#CCOc1cc(-c2cccs2)ncn1 [Example 6] | 90 | – | –
– | 3.26 | CC#CCOc1cc(-c2cscc2C)ncn1 [Example 25] | 80 | – | 80
2.31 | – | Clc1cc(-c2ccsc2)ncn1 [II-1, 4-chloro-6-(3-thienyl)pyrimidine] | – | – | –

More lines, now with the values behind:

Structure (SMILES) | chromatographic logP [1, 4] | chromatographic logP [1, 5] | effect in % (% 5 d) [2] [%] | effect in % (% 6-7 d) (Myzus persicae) [%] | kill in % (% 6 d) [3] [%]
CC#CCOc1cc(-c2ccsc2)ncn1 [Example 1, 4-(2-butyn-1-yl-oxy)-6-(3-thienyl)-pyrimidine] | 2.84 | – | – | – | –
CC#CCOc1cc(-n2cc(Cl)cn2)ncn1 [Example 2, 4-butynyloxy-6-(4-chloropyrazol-1-yl)pyrimidine] | 3.65 | – | – | – | –
CC#CCOc1cc(-n2cccn2)ncn1 [Example 8] | – | 2.55 | 90 | – | –
CC#CCOc1cc(-n2ccnc2)ncn1 [Example 12] | – | 1 | – | 100 | –
